According to patent US6444617B1, “Fused-heterocycle dicarboxylic acid diamide derivatives or salts thereof, herbicide and usage thereof” (Nihon Nohyaku Co., Ltd., priority 1998, dated 2002):

Experiments:
Type in all cases: in vivo
[1] = test system: barnyard grass (Echinochloa crus-galli Beauv.), Ec; assay: Test Example 4: herbicidal effect on upland weeds after emergence; conditions: dosage 5 kg/ha; sprayed after emergence; judged 14 days after treatment
How it was run: (§1)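 Upland weeds and crop plants (soybean, wheat) are grown from seed in soil until they reach given leaf stages, then treated by spraying with the compound-containing agent; effects are judged two weeks later.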

[2] = test system: cocklebur (Xanthium strumarium L.), Xs; assay: as above; conditions: dosage 5 kg/ha; sprayed after emergence; judged 14 days after treatment
How it was run: as §1

[3] = test system: forxtail grass (Alopecurus aequalis var. amurensis Ohwi), Am; assay: as above; conditions: dosage 5 kg/ha; sprayed after emergence; judged 14 days after treatment
How it was run: as §1

[4] = test system: cleavers (Galium aparine L.), Ga; assay: as above; conditions: dosage 5 kg/ha; sprayed after emergence; judged 14 days after treatment
How it was run: as §1

[5] = test system: velvetleaf (Abutilon theophtasti L.), At; assay: as above; conditions: dosage 5 kg/ha; sprayed after emergence; judged 14 days after treatment
How it was run: as §1

[6] = test system: bird's eye speedwell (Veronica persica Poir.), Vp; assay: as above; conditions: dosage 5 kg/ha; sprayed after emergence; judged 14 days after treatment
How it was run: as §1

soybean plant (So) = assay: Test Example 3: phytotoxicity to upland crop plants, treatment before emergence; conditions: dosage 5 kg/ha
How it was run: (§2)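 Crops treated before emergence with sprayed liquid preparation of compound (prescribed concentration). Day 14: phytotoxicity graded per criterion.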

wheat (Wh) = assay: as above; conditions: dosage 5 kg/ha
How it was run: as §2

[7] = test system: barnyard grass (Echinochloa crus-galli Beauv.); assay: Test Example 2: herbicidal effect on paddy field weeds after emergence; conditions: Dosage 5 kg/ha; one-leaved stage; 21 days after treatment
How it was run: (§3)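 Weeds in flooded paddy-soil pots were grown to the one-leaved stage, then the soil was treated with the compound solution at a set dosage.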

[8] = test system: bulrush (Scirpus juncoides Roxb.); assay: as above; conditions: Dosage 5 kg/ha; one-leaved stage; 21 days after treatment
How it was run: as §3

[9] = test system: monochoria (Monochoria vaginalis Presl); assay: as above; conditions: Dosage 5 kg/ha; one-leaved stage; 21 days after treatment
How it was run: as §3

soybean plant = assay: Test Example 4: phytotoxicity to upland crop plants, treatment after emergence; conditions: dosage 5 kg/ha, sprayed after emergence, judged 14 days after treatment
How it was run: (§4)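 Seeds sown in soil and covered. Plants raised to specified leaf stages. Agent with test compound at a prescribed concentration sprayed. Herbicidal effect and crop damage scored after 14 days as weed-killing rate.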

wheat = assay: as above; conditions: dosage 5 kg/ha, sprayed after emergence, judged 14 days after treatment
How it was run: as §4

[10] = test system: barnyard grass (Echinochloa crus-galli Beauv.); assay: Test Example 1: herbicidal effect on paddy field weeds before emergence; conditions: Dosage 5 kg/ha
How it was run: (§5)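 Grading reflects percent control relative to untreated plots, evaluated three weeks post-application. Treatment was a soil application of compound solution, predetermined dose, made to paddy-state pots before weed seeds germinated.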

[11] = test system: bulrush (Scirpus juncoides Roxb.); assay: as above; conditions: Dosage 5 kg/ha
How it was run: as §5

[12] = test system: barnyard grass (Echinochloa crus-galli Beauv.), Ec; assay: Test Example 3: herbicidal effect on upland weeds before emergence; conditions: dosage 5 kg/ha
How it was run: (§6)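 Test compound, formulated as a liquid at a fixed concentration, is sprayed before weed emergence. Two weeks later, kill rate is derived and herbicidal activity is rated.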

[13] = test system: cocklebur (Xanthium strumarium L.), Xs; assay: as above; conditions: dosage 5 kg/ha
How it was run: as §6

[14] = test system: forxtail grass (Alopecurus aequalis var. amurensis Ohwi), Am; assay: as above; conditions: foxtail grass, dosage 5 kg/ha
How it was run: as §6

[15] = test system: cleavers (Galium aparine L.), Ga; assay: as above; conditions: dosage 5 kg/ha
How it was run: as §6

[16] = test system: velvetleaf (Abutilon theophtasti L.), At; assay: as above; conditions: dosage 5 kg/ha
How it was run: as §6

[17] = test system: bird's eye speedwell (Veronica persica Poir.), Vp; assay: as above; conditions: dosage 5 kg/ha
How it was run: as §6

Compound | Herbicidal effect Ec [1] | Herbicidal effect Xs [2] | Herbicidal effect Am [3] | Herbicidal effect Ga [4] | Herbicidal effect At [5] | Herbicidal effect Vp [6] | Phytotoxicity So (soybean plant (So)) | Phytotoxicity Wh (wheat (Wh)) | Post-emergence treatment Barnyard grass (herbicidal effect) [7] | Post-emergence treatment Bulrush (herbicidal effect) [8] | Post-emergence treatment Monochoria (herbicidal effect) [9] | Phytotoxicity So (soybean plant) | Phytotoxicity Wh (wheat) | Pre-emergence treatment Barnyard grass (herbicidal effect) [10] | Pre-emergence treatment Bulrush (herbicidal effect) [11] | Herbicidal effect Ec [12] | Herbicidal effect Xs [13] | Herbicidal effect Am [14] | Herbicidal effect Ga [15] | Herbicidal effect At [16] | also measured
CCCNC(=O)c1nc2c(cc1C(=O)Nc1c(CC)ccc(Cl)c1CC)CCCO2 [compound 414] | 5 (Weed-killing rate is 100%.) | 5 (Weed-killing rate is 100%.) | 5 (Weed-killing rate is 100%.) | 5 (Weed-killing rate is 100%.) | 5 (Weed-killing rate is 100%.) | 5 (Weed-killing rate is 100%.) | 4 (Crop-killing rate is 90-99%.) | 5 (Crop-killing rate is 100%.) | 5 (Weed-killing rate is 100%.) | 5 (Weed-killing rate is 100%.) | 5 (Weed-killing rate is 100%.) | 4 (Crop-killing rate is 90-99%.) | 5 (Crop-killing rate is 100%.) | 5 (Weed-killing rate is 100%.) | 5 (Weed-killing rate is 100%.) | 5 (Weed-killing rate is 100%.) | 5 (Weed-killing rate is 100%.) | 5 (Weed-killing rate is 100%.) | 5 (Weed-killing rate is 100%.) | 5 (Weed-killing rate is 100%.) | Herbicidal effect Vp [17]: 5 (Weed-killing rate is 100%.)
CCc1ccc(Cl)c(CC)c1NC(=O)c1cc2c(nc1C(=O)NC1CCCC1)OCCC2 [compound 423] | 5 (Weed-killing rate is 100%.) | 5 (Weed-killing rate is 100%.) | 5 (Weed-killing rate is 100%.) | 5 (Weed-killing rate is 100%.) | 5 (Weed-killing rate is 100%.) | 5 (Weed-killing rate is 100%.) | 4 (Crop-killing rate is 90-99%.) | 5 (Crop-killing rate is 100%.) | 5 (Weed-killing rate is 100%.) | 5 (Weed-killing rate is 100%.) | 5 (Weed-killing rate is 100%.) | 4 (Crop-killing rate is 90-99%.) | 5 (Crop-killing rate is 100%.) | 5 (Weed-killing rate is 100%.) | 5 (Weed-killing rate is 100%.) | 5 (Weed-killing rate is 100%.) | 5 (Weed-killing rate is 100%.) | 5 (Weed-killing rate is 100%.) | 5 (Weed-killing rate is 100%.) | 5 (Weed-killing rate is 100%.) | Herbicidal effect Vp [17]: 5 (Weed-killing rate is 100%.)
Cc1c(Cl)cccc1NC(=O)c1cc2c(nc1C(=O)NCC(C)C)OCCC2 [compound 431] | 4 (Weed-killing rate is 90-99%.) | 4 (Weed-killing rate is 90-99%.) | 4 (Weed-killing rate is 90-99%.) | 4 (Weed-killing rate is 90-99%.) | 5 (Weed-killing rate is 100%.) | 5 (Weed-killing rate is 100%.) | 3 (Crop-killing rate is 70-89%.) | 3 (Crop-killing rate is 70-89%.) | 5 (Weed-killing rate is 100%.) | 5 (Weed-killing rate is 100%.) | 5 (Weed-killing rate is 100%.) | 3 (Crop-killing rate is 70-89%.) | 4 (Crop-killing rate is 90-99%.) | 5 (Weed-killing rate is 100%.) | 5 (Weed-killing rate is 100%.) | 5 (Weed-killing rate is 100%.) | 4 (Weed-killing rate is 90-99%.) | 4 (Weed-killing rate is 90-99%.) | 4 (Weed-killing rate is 90-99%.) | 5 (Weed-killing rate is 100%.) | Herbicidal effect Vp [17]: 5 (Weed-killing rate is 100%.)
CCCNC(=O)c1nc2c(cc1C(=O)Nc1c(CC)ccc(Cl)c1CC)CCOC2 [compound 438] | 5 (Weed-killing rate is 100%.) | 5 (Weed-killing rate is 100%.) | 5 (Weed-killing rate is 100%.) | 5 (Weed-killing rate is 100%.) | 5 (Weed-killing rate is 100%.) | 5 (Weed-killing rate is 100%.) | 5 (Crop-killing rate is 100%.) | 5 (Crop-killing rate is 100%.) | 5 (Weed-killing rate is 100%.) | 5 (Weed-killing rate is 100%.) | 5 (Weed-killing rate is 100%.) | 4 (Crop-killing rate is 90-99%.) | 5 (Crop-killing rate is 100%.) | 5 (Weed-killing rate is 100%.) | 5 (Weed-killing rate is 100%.) | 5 (Weed-killing rate is 100%.) | 5 (Weed-killing rate is 100%.) | 5 (Weed-killing rate is 100%.) | 5 (Weed-killing rate is 100%.) | 5 (Weed-killing rate is 100%.) | Herbicidal effect Vp [17]: 5 (Weed-killing rate is 100%.)
CCc1ccc(Cl)c(CC)c1NC(=O)c1cc2c(nc1C(=O)NC1CCCC1)COCC2 [compound 447] | 5 (Weed-killing rate is 100%.) | 5 (Weed-killing rate is 100%.) | 5 (Weed-killing rate is 100%.) | 5 (Weed-killing rate is 100%.) | 5 (Weed-killing rate is 100%.) | 5 (Weed-killing rate is 100%.) | 4 (Crop-killing rate is 90-99%.) | 5 (Crop-killing rate is 100%.) | 5 (Weed-killing rate is 100%.) | 5 (Weed-killing rate is 100%.) | 5 (Weed-killing rate is 100%.) | 4 (Crop-killing rate is 90-99%.) | 5 (Crop-killing rate is 100%.) | 5 (Weed-killing rate is 100%.) | 5 (Weed-killing rate is 100%.) | 5 (Weed-killing rate is 100%.) | 5 (Weed-killing rate is 100%.) | 5 (Weed-killing rate is 100%.) | 5 (Weed-killing rate is 100%.) | 5 (Weed-killing rate is 100%.) | Herbicidal effect Vp [17]: 5 (Weed-killing rate is 100%.)
